Experimental data from patent US8496928B2, “Method for preventing and treating cardiovascular diseases with BRCA1” (priority 2008, dated 2013).

Columns and labels:
Format in all cases: cell-based, human
GADD45, p21 and p53 = assay: Western blot of GADD45, p21 and p53 in HUVECs; conditions: TNFα
Description: In FIG. 25A cell cycle progression was assessed after adenoviral (ad-null or ad-BRCA1) infection of HUVECs and 24 hours of TNFα (20 ng/ml) treatment followed by Propidium Iodide staining coupled with flow cytometry. […] GAPDH was used as a loading control.
(§1) Western blot analysis was performed according to standard procedures. Proteins from whole cell lysates of HUVECs were resolved on SDS-polyacrylamide gels and transferred to nitrocellulose membranes (Bio-Rad). Membranes were probed with primary antibodies from Santa Cruz (BRCA1), Cell Signaling (p53, p21, Ser1177-phospho-eNOS, Akt, Ser473-phospho-Akt, cleaved caspase-3), Chemicon (GADD45a, GAPDH) and BD (eNOS). Immunoblots were incubated with the appropriate horseradish peroxidase-associated secondary antibodies before signals were visualized by chemiluminescence via the ECL detection system (GE Healthcare).

HUVECs [1] = assay: Matrigel tube formation assay; conditions: TNFα 20 ng/ml
Description: (§2) In FIG. 24A ad-null or ad-BRCA1 infected cells were trypsinized and seeded in the presence and absence of TNFα (20 ng/ml) on coated inserts and a colorimetric assay was performed after 24 hours. Migration was calculated as a percentage of ad-null controls. (n=4, **p<0.01). In FIG. 24B, ad-null or ad-BRCA1 infected HUVECs were seeded onto matrigel in the presence or absence of TNFα (20 ng/ml). Images were taken 5 hours after seeding (original magnification 20×). In FIG. 24C data was semi-quantitatively analyzed by counting tubular structures in four fields per group. Data is presented as mean±SD (n=3 in triplicate, *p<0.05, **p<0.01). HUVECs infected with ad-null or ad-BRCA1 were treated for 24 hours with TNFα (20 ng/ml). VCAM1 (FIG. 24D, FIG. 24E), ICAM1 (FIG. 24F, FIG. 24G) and E-selectin (FIG. 24H, FIG. 24I) protein and transcript expression were determined in cell extracts via western blots and real-time PCR, respectively. GAPDH was used as a loading control for western blots and as a housekeeping gene for real-time PCR. Data are expressed as mean±SD (n=3, **p<0.01).
HUVEC-associated angiogenesis was measured with the In Vitro Angiogenesis Assay Kit from Chemicon. […] Tube formation was quantified by counting the number of tubes, branching points and network of tubes in randomly captured microscopic fields and by scoring the values for each type of structure. […]

eNOS, Akt, VEGFa = assay: eNOS/phospho-eNOS, Akt/phospho-Akt and VEGFa expression in HUVECs; conditions: TNFα treatment
Description: FIGS. 28A through 28E show eNOS/phospho-eNOS, Akt/phospho-Akt and VEGFa protein and RNA expression. Total protein and RNA were extracted from ad-null or ad-BRCA1 infected HUVECs treated thereafter with TNFα for 24 hours. As shown in FIGS. 28A and 28C, TNFα markedly elevated eNOS protein levels in BRCA1-overexpressing cells. […] Data are presented as mean±SEM of three independent experiments (*p<0.05, **p<0.01).
BRCA1 also promoted eNOS, phospho-eNOS, phospho-Akt and VEGFa expression. Since eNOS is essential for endothelial function, the potential regulation of endothelial nitric oxide synthase (eNOS) expression and phosphorylation by BRCA1 was examined via western blot analysis.
as §1, with “Immunoblots were incubated with the appropriate horseradish peroxidase-associated secondary antibodies before signals were visualized by chemiluminescence via the ECL detection system (GE Healthcare).” left out
(§3) Total RNA extracted from HUVECs were reverse transcribed for quantitative assessment of VCAM1, ICAM1, E-selectin and VEGFa expressions by real-time PCR using the primer pairs listed in Table 4.

[2] = tested on: VCAM1, ICAM1 and E-selectin; assay: VCAM1, ICAM1 and E-selectin expression in HUVECs, real-time PCR and western blot; conditions: ad-null treated HUVECs, TNFα 20 ng/ml 24 hours
Description: as §2, §1, §3
PCR reactions were performed on the ABI PRISM 7900HT system (Applied Biosystems) with GAPDH acting as the housekeeping control.

HUVECs [3] = assay: HUVEC migration assay; conditions: TNFα 20 ng/ml
Description: as §2, with “GAPDH was used as a loading control for western blots and as a housekeeping gene for real-time PCR.” left out
The migratory function of HUVECs was determined with the CytoSelect™ 24-Well Cell Migration Fluorometric Assay (Cell Biolabs). […] Following 12 hours at 37° C., migratory cells were dissociated from the underside of the insert membrane, lysed and stained with the Lysis Buffer/CyQuant® GR dye solution before being fluorescently quantified. […]

## TNFα
GADD45, p21 and p53
  protein levels of p53 and GADD45: no influence
GADD45, p21 and p53; in the presence and absence of BRCA1 overexpression
  p21 protein levels: significantly elevate
HUVECs [1]
  capacity to form vessel-like tubular structures: reduced
eNOS, Akt, VEGFa
  eNOS protein levels: significant reduction
[2]
  E-selectin transcript upregulation: 200 times
  ICAM1 transcript upregulation: 400 times
  VCAM1 transcript upregulation: 1500 times
HUVECs [3]
  migratory capacity of HUVECs: significantly hampered
